These compounds were tested against T1, glucocorticoid receptor (Homo sapiens, UniProt P04150) (assay: Hep G2 TAT IC50: inhibition of dexamethasone-induced TAT in HepG2 cells (384 well)).
T1 construct: endogenous in cells; ATCC cat
T1 sequence (P04150 1-777): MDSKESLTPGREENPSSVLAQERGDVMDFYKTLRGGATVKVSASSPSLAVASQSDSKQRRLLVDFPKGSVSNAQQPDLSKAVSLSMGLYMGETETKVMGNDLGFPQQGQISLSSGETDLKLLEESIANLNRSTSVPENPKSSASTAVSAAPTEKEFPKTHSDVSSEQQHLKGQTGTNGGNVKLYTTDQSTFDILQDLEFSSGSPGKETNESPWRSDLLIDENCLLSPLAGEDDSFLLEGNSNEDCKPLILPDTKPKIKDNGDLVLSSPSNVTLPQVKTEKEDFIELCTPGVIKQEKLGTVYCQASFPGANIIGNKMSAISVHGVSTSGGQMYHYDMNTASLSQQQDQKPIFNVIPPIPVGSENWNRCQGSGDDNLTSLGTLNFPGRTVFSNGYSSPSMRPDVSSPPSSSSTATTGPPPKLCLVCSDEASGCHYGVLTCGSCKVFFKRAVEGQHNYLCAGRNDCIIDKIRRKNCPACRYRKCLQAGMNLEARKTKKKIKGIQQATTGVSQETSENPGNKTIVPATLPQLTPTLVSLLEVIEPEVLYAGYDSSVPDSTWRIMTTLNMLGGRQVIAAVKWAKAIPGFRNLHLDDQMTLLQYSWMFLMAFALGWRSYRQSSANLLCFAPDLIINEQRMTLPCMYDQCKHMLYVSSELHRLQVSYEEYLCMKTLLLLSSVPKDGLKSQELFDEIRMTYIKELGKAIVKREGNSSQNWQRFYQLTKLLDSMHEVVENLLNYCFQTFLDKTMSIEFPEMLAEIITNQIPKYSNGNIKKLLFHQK
Format: cell-based
Protocol: Glucocorticoid mediated activation of TAT occurs by transactivation of glucocorticoid response elements in the TAT promoter by glucocorticoid receptor/agonist complex.
HepG2 cells were cultured using MEME media supplemented with 10% (v/v) foetal bovine serum, 2 mM L-glutamine, 1% (v/v) NEAA, and 1% (v/v) penstrep, at 37° C., 5%/95% (v/v) CO2/air.
Compounds were diluted from a 10 mM stock via an Echo Acoustic liquid handler into 10 μL assay media to generate a 10-point half-log dilution curve.
HepG2 cells were then lysed with 8 μL of cell lysis buffer containing a protease inhibitor cocktail for 15 minutes at 25° C. […] After a 2-hour incubation at 37° C. the reaction was terminated by the addition of 8 μL of 5 M aqueous potassium hydroxide solution, and the plates incubated for a further 30 minutes at 37° C.
[compound] and fitting the data to a 4-parameter logistic equation.
For `Cc1cc2c(cnn2-c2ccc(=O)n(C)c2)cc1C1CN(S(=O)(=O)N2CCOCC2)CCN1CCC(F)(F)F` (stereo not drawn) [Example 198, 1-methyl-5-(6-methyl-5-(4-morpholinosulfonyl-1-(3,3,3-trifluoropropyl)piperazin-2-yl)indazol-1-yl)pyridin-2-one], the IC50 was 1280 nM.
`Cc1cc2c(cnn2-c2ccccc2)cc1C1CN(S(=O)(=O)c2cnn(C)n2)CCN1CCC(F)(F)F` (stereo not drawn) [Example 199, 6-methyl-5-(4-(2-methyltriazol-4-yl)sulfonyl-1-(3,3,3-trifluoropropyl)piperazin-2-yl)-1-phenyl-indazole] showed an IC50 of 1320 nM.
For `Cc1cccc(-n2ncc3cc(C4CN(S(=O)(=O)c5cnn(C)n5)CCN4CCC(F)(F)F)c(C)cc32)c1` (stereo not drawn) [Example 200, 6-methyl-5-(4-(2-methyltriazol-4-yl)sulfonyl-1-(3,3,3-trifluoropropyl)piperazin-2-yl)-1-(m-tolyl)indazole], the IC50 was 4010 nM.
Compound `Cc1cc2c(cnn2-c2cccc(C(F)F)c2)cc1C1CN(S(=O)(=O)c2cnn(C)n2)CCN1CCC(F)(F)F` (stereo not drawn) [Example 201, 1-(3-(difluoromethyl)phenyl)-6-methyl-5-(4-(2-methyltriazol-4-yl)sulfonyl-1-(3,3,3-trifluoropropyl)piperazin-2-yl)indazole] has an IC50 of 3850 nM.
`Cc1cc2c(cnn2-c2ccc(F)c(CO)c2)cc1C1CN(S(=O)(=O)c2cnn(C)n2)CCN1CCC(F)(F)F` (stereo not drawn) [Example 202, (2-fluoro-5-(6-methyl-5-(4-(2-methyltriazol-4-yl)sulfonyl-1-(3,3,3-trifluoropropyl)piperazin-2-yl)indazol-1-yl)phenyl)methanol] showed an IC50 of 1040 nM.
`Cc1cc(-n2ncc3cc(C4CN(S(=O)(=O)c5cnn(C)n5)CCN4CCC(F)(F)F)c(C)cc32)ncn1` (stereo not drawn) [Example 203, 6-methyl-1-(6-methylpyrimidin-4-yl)-5-(4-(2-methyltriazol-4-yl)sulfonyl-1-(3,3,3-trifluoropropyl)piperazin-2-yl)indazole] showed an IC50 of 9330 nM.
`Cc1cnnc(-n2ncc3cc(C4CN(S(=O)(=O)c5cnn(C)n5)CCN4CCC(F)(F)F)c(C)cc32)c1` (stereo not drawn) [Example 204, 6-methyl-1-(5-methylpyridazin-3-yl)-5-(4-(2-methyltriazol-4-yl)sulfonyl-1-(3,3,3-trifluoropropyl)piperazin-2-yl)indazole] gave an IC50 of 3850 nM.
`COc1ccc(-n2ncc3cc(C4CN(S(=O)(=O)c5cnn(C)n5)CCN4CCC(F)(F)F)c(C)cc32)cc1` (stereo not drawn) [Example 205, 1-(4-methoxyphenyl)-6-methyl-5-(4-(2-methyltriazol-4-yl)sulfonyl-1-(3,3,3-trifluoropropyl)piperazin-2-yl)indazole] showed an IC50 of 2880 nM.
In the case of `COc1ncc(-n2ncc3cc(C4CN(S(=O)(=O)c5cnn(C)n5)CCN4CCC(F)(F)F)c(C)cc32)cc1C` (stereo not drawn) [Example 206, 1-(6-methoxy-5-methyl-3-pyridyl)-6-methyl-5-(4-(2-methyltriazol-4-yl)sulfonyl-1-(3,3,3-trifluoropropyl)piperazin-2-yl)indazole], the IC50 is reported as 6120 nM.
`Cc1cc2c(cnn2-c2cc(F)c(=O)n(C)c2)cc1C1CN(S(=O)(=O)c2cnn(C)n2)CCN1CCC(F)(F)F` (stereo not drawn) [Example 207, 3-fluoro-1-methyl-5-(6-methyl-5-(4-(2-methyltriazol-4-yl)sulfonyl-1-(3,3,3-trifluoropropyl)piperazin-2-yl)indazol-1-yl)pyridin-2-one] was tested, and the IC50 was 933 nM.
`CN(C)S(=O)(=O)N1CCN(CCC(F)(F)F)C(c2cc3cnn(-c4ccc(F)cc4)c3cc2Cl)C1` (stereo not drawn) [Example 209, 3-(6-chloro-1-(4-fluorophenyl)indazol-5-yl)-N,N-dimethyl-4-(3,3,3-trifluoropropyl)piperazine-1-sulfonamide] gave an IC50 of 3130 nM.
Compound `O=S(=O)(N1CCOCC1)N1CCN(CCC(F)(F)F)C(c2cc3cnn(-c4ccc(F)cc4)c3cc2Cl)C1` (stereo not drawn) [Example 210, 4-(3-(6-chloro-1-(4-fluorophenyl)indazol-5-yl)-4-(3,3,3-trifluoropropyl)piperazin-1-yl)sulfonylmorpholine] has an IC50 of 2540 nM.
In the case of `Cc1cc(-n2ncc3cc(C4CN(S(=O)(=O)N5CCOCC5)CCN4CCC(F)(F)F)c(Cl)cc32)cn(C)c1=O` (stereo not drawn) [Example 211, 5-(6-chloro-5-(4-morpholinosulfonyl-1-(3,3,3-trifluoropropyl)piperazin-2-yl)indazol-1-yl)-1,3-dimethyl-pyridin-2-one], the IC50 is reported as 589 nM.
Compound `COc1cc2c(cnn2-c2ccc(F)cc2)cc1C1CN(S(=O)(=O)N(C)C)CCN1CCC(F)(F)F` (stereo not drawn) [Example 212, 3-(1-(4-fluorophenyl)-6-methoxy-indazol-5-yl)-N,N-dimethyl-4-(3,3,3-trifluoropropyl)piperazine-1-sulfonamide] has an IC50 of 1440 nM.
Compound `COc1cc2c(cnn2-c2ccc(F)cc2)cc1C1CN(S(=O)(=O)N(C)C)CCN1CC1CC(F)(F)C1` (stereo not drawn) [Example 213, 4-((3,3-difluorocyclobutyl)methyl)-3-(1-(4-fluorophenyl)-6-methoxy-indazol-5-yl)-N,N-dimethyl-piperazine-1-sulfonamide] has an IC50 of 2240 nM.
